According to US11951204B2, “Cell-penetrating peptides and composition including the same” (S-SKIN. CO., LTD., priority 2022, dated 2024):
Ends that are not written are not given here. * marks the point of attachment. FITC = O=C1OC2(c3ccc(O)cc3Oc3cc(O)ccc32)c2ccc(NC(=S)*)cc21; Ahx = NCCCCCC(=O)O

What was measured:
Assay type in all cases: cell-based, human
HaCaT cells [1] = test: Dependence of cell penetration on ATP (flow cytometry); conditions: pre-treated with 2-DG and NaN3
Protocol: (§1) HaCaT cells were inoculated at a concentration of 3×10^5 cells/well into a 6-well plate and incubated for 24 hours. Then, the cell culture medium was removed, followed by washing twice with HBSS, and replaced with an Opti-MEM medium. The cells were treated with 10 μM FITC-TAT, FITC-Spep001, FITC-Spep002 or FITC-Spep003 and incubated at 37° C. with 5% CO2 for 1 hour. […] Finally, the cells were treated with 1 mg/mL trypsin and thus separated into single cells, followed by centrifugation at 1,000 rpm for 5 minutes. The FITC fluorescence intensities of cell-penetrating peptides per living 10,000 cells were measured by performing flow cytometry (Navios Flow Cytometer by Beckman Coulter Life Sciences), and the result thereof is shown in FIG. 5A(i) to FIG. 5A(v) and FIG. 5B.
A test was conducted in the same conditions as those in Example 7 except that the cells were pre-treated with 2-DG (2-deoxyglucose, D6134, sigma) and NaN3 (sodium azide, 71289, sigma) one hour before treatment with FITC-TAT, FITC-Spep001, FITC-Spep002 or FITC-Spep003 to check the dependence of endocytosis on ATP. Then, the FITC fluorescence intensities of peptides penetrating into living cells were measured by flow cytometry as in Example 5, and the result thereof is shown in FIG. 7.

HaCaT cells [2] = test: Cell penetration rate by flow cytometry; conditions: 10 μM, 37° C., 1 hour
Protocol: as §1

HaCaT cells [3] = test: Cell penetration by confocal laser microscope; conditions: 10 μM, 24 hours, compared to positive control FITC-TAT
Protocol: HaCaT cells were inoculated at a concentration of 1.5×10^4 cells/well into an optical 96-well plate (M0562, Greiner) and incubated for 24 hours. Then, the medium was removed, followed by washing once with HBSS, and replaced with a serum-free medium. The cells were treated with 10 μM FITC-Spep001, FITC-Spep002 or FITC-Spep003 and then further incubated for 24 hours. Thereafter, the cells were washed four times with HBSS and treated with 10 μg/mL H33342 (bisBenzimide H33342 trihydrochloride (B2261, Sigma)) and then further incubated at room temperature for 5 minutes. Finally, the cells were washed three times with HBSS. The cell penetration rate was checked using a super resolution confocal laser microscope (LSM800), and the result thereof is shown in FIG. 4A(i) to FIG. 4F(iv). Herein, the cells were treated only FITC (F1906, Invitrogen™) as a negative control, and FITC-TAT was used as a positive control.

## FITC-Ahx-RLRLRQRRRR ({FITC-Ahx}-RLRLRQRRRR) [FITC-Spep001, Spep001 labelled with FITC at the N-terminal amine group]
HaCaT cells [1]
  FITC fluorescence intensity under ATP deficiency: decreased
HaCaT cells [2]
  cell penetration rate (FITC-positive cell count): 36.3%
  cell penetration rate based on TAT-FITC with a cell penetration rate of 100%: 133.95%
HaCaT cells [3]
  amount penetrating into cells (fluorescent microscopic image): penetrates into cells in a greater amount than the positive control FITC-TAT
